What was measured:
Details in all cases: 72 h
Calu-3 [1] = test: relative viability EC50 (midpoint between 100% and the lowest measured viability); higher = less toxic
HepG2 [2] = test: as above
Vero E6 [3] = test: as above
U2OS [4] = test: as above
Caco-2 [5] = test: as above
Calu-3 [6] = test: cell viability relative to DMSO; higher = less toxic
HepG2 [7] = test: as above
Vero E6 [8] = test: as above
U2OS [9] = test: as above
Caco-2 [10] = test: as above
Calu-3 [11] = test: drug sensitivity score (DSS) for viability; higher = more toxic; extreme values may be limits of the assay
HepG2 [12] = test: as above
Vero E6 [13] = test: as above
U2OS [14] = test: as above
Caco-2 [15] = test: as above

Row | SMILES | relative viability EC50 (Calu-3 [1]) [µM] | relative viability EC50 (HepG2 [2]) [µM] | relative viability EC50 (Vero E6 [3]) [µM] | relative viability EC50 (U2OS [4]) [µM] | relative viability EC50 (Caco-2 [5]) [µM] | cell viability (Calu-3 [6]; 1 nM) [%] | cell viability (Calu-3 [6]; 10 nM) [%] | cell viability (Calu-3 [6]; 100 nM) [%] | cell viability (Calu-3 [6]; 1000 nM) [%] | cell viability (Calu-3 [6]; 10000 nM) [%] | cell viability (HepG2 [7]; 1 nM) [%] | cell viability (HepG2 [7]; 10 nM) [%] | cell viability (HepG2 [7]; 100 nM) [%] | cell viability (HepG2 [7]; 1000 nM) [%] | cell viability (HepG2 [7]; 10000 nM) [%] | cell viability (Vero E6 [8]; 1 nM) [%] | cell viability (Vero E6 [8]; 10 nM) [%] | cell viability (Vero E6 [8]; 100 nM) [%] | cell viability (Vero E6 [8]; 1000 nM) [%] | cell viability (Vero E6 [8]; 10000 nM) [%] | cell viability (U2OS [9]; 1 nM) [%] | cell viability (U2OS [9]; 10 nM) [%] | cell viability (U2OS [9]; 100 nM) [%] | cell viability (U2OS [9]; 1000 nM) [%] | cell viability (U2OS [9]; 10000 nM) [%] | cell viability (Caco-2 [10]; 1 nM) [%] | cell viability (Caco-2 [10]; 10 nM) [%] | cell viability (Caco-2 [10]; 100 nM) [%] | cell viability (Caco-2 [10]; 1000 nM) [%] | cell viability (Caco-2 [10]; 10000 nM) [%] | drug sensitivity score (Calu-3 [11]) | drug sensitivity score (HepG2 [12]) | drug sensitivity score (Vero E6 [13]) | drug sensitivity score (U2OS [14]) | drug sensitivity score (Caco-2 [15])
1 | NNC(=O)CN1C(=O)CN=C(c2ccccc2)c2cc(Br)ccc21 [gidazepam] | > 10 | > 10 | > 10 | > 10 | > 10 | 104 | 99 | 100 | 110 | 98.5 | 106 | 92.2 | 109 | 106 | 106 | 99.3 | 102 | 93 | 94.1 | 102 | 96.5 | 92.2 | 96.8 | 91 | 97.5 | 95.8 | 92.7 | 94.4 | 90.2 | 95.7 | 0 | 0 | 0 | 0 | 0
2 | COC1(C2=NCCN2)COc2ccccc2O1 (stereo not given) | > 10 | > 10 | > 10 | > 10 | > 10 | 100 | 103 | 96 | 93 | 94.6 | 109 | 109 | 91.2 | 107 | 99.3 | 103 | 96 | 93.3 | 100 | 98.2 | 96.2 | 95.1 | 103 | 97.9 | 101 | 99.5 | 91.5 | 101 | 89.7 | 91.4 | 0 | 0 | 0 | 0 | 0
3 | CCS(=O)(=O)N1CCC[C@@H]2CN3CCc4cc(OC)ccc4[C@@H]3C[C@@H]21 | > 10 | > 10 | > 10 | > 10 | > 10 | 103 | 90.4 | 109 | 101 | 103 | 99.9 | 113 | 109 | 92.2 | 102 | 96.3 | 103 | 97.1 | 93.8 | 105 | 99.5 | 103 | 108 | 108 | 106 | 94.7 | 94.2 | 95 | 104 | 91.7 | 0 | 0 | 0 | 0 | 0
4 | CC=C1C(=O)C[C@H]2[C@@H]3CCC4=CC(=O)CC[C@]4(C)[C@H]3CC[C@]12C [GR-235] | > 10 | > 10 | > 10 | > 10 | > 10 | 110 | 89.9 | 100 | 99.8 | 114 | 85.2 | 93.1 | 95.4 | 101 | 91 | 110 | 108 | 97.8 | 104 | 111 | 100 | 98.4 | 102 | 98.2 | 99.1 | 95.6 | 96.2 | 99.5 | 90.3 | 83.4 | 0 | 0 | 0 | 0 | 1
5 | COC(=O)C1=C(C)NC(C)=C(C(=O)OCCN(C)Cc2ccccc2)C1c1cccc([N+](=O)[O-])c1 (stereo not given) [nicardipine] | > 10 | > 10 | > 10 | > 10 | > 10 | 91.7 | 91.5 | 94.1 | 90.2 | 90.2 | 91.6 | 100 | 141 | 109 | 95.4 | 93.2 | 106 | 98.2 | 103 | 96.9 | 96.5 | 103 | 95.5 | 98.1 | 91.3 | 102 | 120 | 97.9 | 84.1 | 84.8 | 0 | 0 | 0 | 0 | 1.9
6 | Cc1c(C(=O)NN2CCCCC2)nn(-c2ccc(Cl)cc2Cl)c1-c1ccc(Cl)cc1 [rimonabant] | > 10 | > 10 | > 10 | > 10 | > 10 | 101 | 93.6 | 89.1 | 96.8 | 99.2 | 97.6 | 94.1 | 105 | 103 | 88.3 | 92.4 | 95 | 88 | 93.5 | 101 | 95.6 | 95.8 | 98.1 | 95.4 | 92.7 | 98.7 | 91.3 | 97.7 | 90.5 | 81.1 | 0 | 0 | 0 | 0 | 0.8
7 | Clc1ccc2c(c1)CCc1cccnc1C2=C1CCNCC1 [desloratadine] | > 10 | > 10 | > 10 | > 10 | > 10 | 99.9 | 100 | 110 | 104 | 106 | 113 | 90.7 | 97.2 | 110 | 93.1 | 104 | 102 | 104 | 106 | 99.9 | 100 | 98.9 | 97.3 | 104 | 95.6 | 91.2 | 93.5 | 94.7 | 90.2 | 102 | 0 | 0 | 0 | 0 | 0
8 | COc1cc2nc(N3CCN(C(=O)C4CCCO4)CC3)nc(N)c2cc1OC (stereo not given) [terazosin] | > 10 | > 10 | > 10 | > 10 | > 10 | 96.1 | 106 | 105 | 99.9 | 96.3 | 107 | 96.7 | 101 | 103 | 112 | 96.4 | 95.4 | 97 | 92.9 | 104 | 97.8 | 102 | 96 | 101 | 103 | 104 | 95.3 | 95.4 | 92.5 | 95.3 | 0 | 0 | 0 | 0 | 0
9 | Nc1ncnc2c1ncn2[C@@H]1O[C@H](COP(=O)(O)OP(=O)(O)OP(=O)(O)O)[C@@H](O)[C@H]1O [ADENOSINE TRIPHOSPHATE DISODIUM] | > 10 | > 10 | > 10 | > 10 | > 10 | 97 | 96.6 | 104 | 95.3 | 110 | 101 | 100 | 106 | 93.2 | 98.4 | 91.9 | 90.5 | 90.6 | 90.2 | 106 | 93.8 | 97.9 | 93.3 | 101 | 110 | 95.3 | 103 | 99.5 | 97.1 | 105 | 0 | 0 | 0 | 0 | 0
10 | NC(=O)[C@@H](CCC(F)(F)F)N(Cc1ccc(-c2ncon2)cc1F)S(=O)(=O)c1ccc(Cl)cc1 [avagacestat] | > 10 | > 10 | > 10 | > 10 | > 10 | 96.2 | 105 | 106 | 95.2 | 105 | 96.6 | 102 | 94.9 | 105 | 87.9 | 107 | 110 | 106 | 109 | 99.2 | 99.1 | 94.9 | 102 | 93.1 | 96.5 | 103 | 99.9 | 95.9 | 93.2 | 77.1 | 0 | 0 | 0 | 0 | 1.4
11 | COc1ccc(C(Cl)=C(c2ccc(OC)cc2)c2ccc(OC)cc2)cc1 [chlorotrianisene] | > 10 | > 10 | > 10 | > 10 | > 10 | 98.5 | 95.9 | 104 | 83.6 | 99.9 | 98.5 | 94.9 | 93.6 | 111 | 101 | 93.8 | 103 | 91.8 | 99.5 | 106 | 95.5 | 97.8 | 101 | 102 | 93.6 | 98.5 | 97.5 | 98 | 104 | 102 | 0 | 0 | 0 | 0 | 0

Reference: the supplement of paper PMC13380429
